Results from publication PMC4450091 (JOM (Warrendale, Pa. : 1989), 2015).
Where no end group is shown, it is not given here.

Assays:
[1] = test system: Streptococcus mutans ATCC 25175; format: cell-based; details: ATCC 25175, 24 h
[2] = test system: Escherichia coli ATCC 2592; format: cell-based; details: ATCC 2592, 24 h

| Sequence | Minimum inhibitory concentration (MIC), S. mutans [1] [µM] | Minimum inhibitory concentration (MIC), E. coli [2] [µM] |
| --- | --- | --- |
| SRPNGYGGSESSGGGLKLLKKLLKLLKKL [TiBPS2-AMP1] | 336.5 | – |
| HAYKQPVLSTPFGGGKWKRWWWWR [TiBPS3-AMP2] | – | 167.4 |
| RPRENRGRERGLGGGKWKRWWWWR [TiBPS1-AMP2] | – | 80.8 |
